From US20230285374A1, “THERAPEUTIC METHODS USING VADADUSTAT” (Akebia Therapeutics, Inc., priority 2019, published 2023)

Assays:
[1] = test system: anemic DD-CKD patients with incident dialysis and limited ESA exposure; test: Phase 3 Incident DD-CKD (Correction/Conversion) trial, vadadustat vs darbepoetin alfa; type: in vivo, human; details: for Ferritin, mean / Hepcidin, mean / TSAT, mean: Incident trial
Experimental: Two randomized Phase 3, open-label, sponsor-blind, active-controlled non-inferiority (NI) trials were conducted in anemic DD-CKD patients with incident dialysis and limited ESA exposure (Correction/Conversion trial) and with prevalent dialysis and established ESA treatment (Conversion trial). The primary safety endpoint was prespecified as the time to first major adverse cardiovascular event (MACE) (all-cause mortality, non-fatal MI, or non-fatal stroke) pooled across the two trials. Primary and key secondary efficacy endpoints were mean change in Hb from baseline [BL] to wks 24-36 and to wks 40-52 between two treatment arms, respectively.
Phase 3, randomized, open-label, active-controlled study of the efficacy and safety of vadadustat versus darbepoetin alfa for the maintenance treatment of anemia after the correction of hemoglobin (Hb) or conversion from current ESA therapy in subjects who have recently initiated dialysis treatment for DD-CKD. Following a Screening period of up to 8 weeks (56 days), subjects who met all inclusion and none of the exclusion criteria were randomized 1:1 to vadadustat or darbepoetin alfa.
Randomization were stratified by: • Geographic region (United States [US] versus European Union [EU] versus Rest of World [ROW]). • New York Heart Association congestive heart failure (CHF) Class 0 (no CHF) or I versus II or III. • Study entry hemoglobin (Hb) level (<9.5 or ≥9.5 g/dL).
Following randomization, there were 4 periods during the study: • Correction/Conversion Period (Weeks 0 to 23): initial period on study medication. • Maintenance Period (Weeks 24 to 52): period on study medication during which efficacy was assessed (primary evaluation period: Weeks 24 to 36; secondary evaluation period: Weeks 40 to 52). • Long-term Treatment Period (Weeks 53 to End of Treatment [EOT]): continued study medication to assess long-term safety. • Follow-up (EOT+4 weeks): post-treatment visit (either in person or via telephone) for safety.
Inclusion Criteria: Subjects met the following criteria: • ≥18 years of age. • Initiated chronic maintenance dialysis (either peritoneal or hemodialysis) for end-stage kidney disease within 16 weeks prior to Screening. • Mean screening hemoglobin (Hb) between 8.0 and 11.0 g/dL (inclusive), as determined by the average of 2 Hb values measured by the central laboratory during Screening. • Serum ferritin ≥100 ng/mL and transferrin saturation (TSAT) ≥20% at Screening. • Folate and vitamin B12 measurements lower limit of normal at Screening. • Understands the procedures and requirements of the study and provides written informed consent and authorization for protected health information disclosure.
Exclusion Criteria: Subjects were excluded if they met any of the following criteria: • Anemia due to a cause other than CKD or subjects with active bleeding or recent blood loss. • Subjects with sickle cell disease, myelodysplastic syndromes, bone marrow fibrosis, hematologic malignancy, myeloma, hemolytic anemia, thalassemia, or pure red cell aplasia. • Red blood cell (RBC) transfusion within 8 weeks prior to randomization. • Anticipated to recover adequate kidney function to no longer require dialysis. • Aspartate aminotransferase (AST)/serum glutamic oxaloacetic transaminase (SGOT), alanine aminotransferase (ALT)/serum glutamic pyruvic transaminase (SGPT), or total bilirubin >2.0×upper limit of normal (ULN) at or during Screening. […]

[2] = test system: stage 3, 4, or 5 CKD patients; test: Phase 2a clinical trials in stage 3, 4, or 5 CKD patients (iron parameters vs placebo); type: in vivo, human
Experimental: In certain embodiments, unsaturated iron binding capacity (UIBC) may be determined by adding serum to an alkaline buffer/reductant solution containing a known concentration of iron to saturate the available binding sites on transferrin. The Ferrozine chromogen reacts only with the Fe^2+; therefore, an iron reductant is added to insure that all iron is present in the ferrous state. The excess unbound divalent iron reacts with Ferrozine chromogen to form a magenta complex, which is measure spectrophotometrically. The unsaturated iron binding capacity (UIBC) is equal to the difference measured in the concentrations of the added iron solution and the excess unbound iron. Serum TIBC is equal to total serum iron plus UIBC and may therefore be calculated using the results of the UIBC and serum iron determinations.
In certain embodiments, serum iron may be determined using a test based on the FerroZine method without deproteinization. Specimens are analyzed on the Roche Modular Instrument utilizing Roche Diagnostics Reagents. Under acidic conditions, iron is liberated from transferrin. The detergent clarifies lipemic samples. Ascorbate reduces the released Fe3+ ions to Fe2+ ions, which then react with FerroZine to form a colored complex. The color intensity is directly proportional to the iron concentration and can be measured photometrically.

O=C(O)CNC(=O)c1ncc(-c2cccc(Cl)c2)cc1O [Compound 1, Vadadustat]
Ferritin, mean ([1]; Baseline): 469.72 ng/mL
Hepcidin, mean ([1]; Baseline): 122.43 ng/mL
TSAT, mean ([1]; Baseline): 31.32%
Ferritin, mean ([1]; Weeks 24-36): 495.73 ng/mL
Hepcidin, mean ([1]; Weeks 24-36): 96.05 ng/mL
TSAT, mean ([1]; Weeks 24-36): 31.65%
Ferritin, mean ([1]; Weeks 40-52): 555.47 ng/mL
Hepcidin, mean ([1]; Weeks 40-52): 95.73 ng/mL
TSAT, mean ([1]; Weeks 40-52): 33.11%
proportion of patients requiring RBC transfusions ([1]; weeks 24-36): 1.3%
proportion of patients with an average hemoglobin value within the geography-specific target range ([1]; weeks 24-36): 43.6%
mean (SEM) change from baseline in hemoglobin ([1]; weeks 24 to 36): 1.26 (0.11) g/dL
mean difference between groups (vadadustat vs darbepoetin alfa) in change from baseline in hemoglobin ([1]; weeks 24 to 36): −0.31 (0.11) g/dL
proportion of patients requiring RBC transfusions ([1]; weeks 40-52): 2.4%
proportion of patients with an average hemoglobin value within the geography-specific target range ([1]; weeks 40-52): 39.8%
mean (SEM) change from baseline in hemoglobin ([1]; weeks 40 to 52): 1.42 (0.132) g/dL
mean difference between groups (vadadustat vs darbepoetin alfa) in change from baseline in hemoglobin ([1]; weeks 40 to 52): −0.07 (0.13) g/dL
serum iron levels ([2]; 6 weeks post administration): not associated with an increase in serum iron levels
total iron binding capacity (TIBC) levels ([2]; 6 weeks post administration, compared to placebo treated patients): increase
transferrin saturation (TSAT) ([2]; dose-related): decrease
